Experimental data from patent US20250092058A1 (priority 2018, published 2025).

Assays:
HT-3 = test: MTT assay HT-3; format: cell-based, human; conditions: Table 7; HT-3
Method: (§1) MTT assays. […] Viable cells (2500 cells per well) were plated in each well in 96-well plates. After an overnight incubation, cells were treated with and without relevant drugs alone and in combination, respectively, at various concentrations and incubated for 72 hours. MTT, a colorimetric substrate, was added to a final concentration of 0.4 mg/ml to each well. Cells in 96-well plates were further incubated in a 5% CO2 incubator at 37° C. for 4 hours, and then the medium was aspirated. The MTT metabolic product formazan was solubilized by adding 200 ul of DMSO to each well. Absorbance in the relevant wells was measured at 570 nm using an Ultra Microplate Reader (Bio-Tek Instruments). Each experiment was performed at least in triplicate. IC50/EC50 values were calculated from a series of drug dose ranges for each analyzed compound, using GraphPad Prism 6 (GraphPad Software, Inc., La Jolla, CA).
(§2) The inhibition of cell growth and viability in various cancer cell types were tested using MTT assay for references.

Y79 = test: MTT assay Y79; format: cell-based; conditions: Table 7
Method: (§3) MTT assays. […] Each experiment was performed at least in triplicate.

Wer 127 = test: MTT assay Wer 127; format: cell-based; conditions: Table 7
Method: as §3

A549 [1] = test: MTT assay A549; format: cell-based, human; conditions: Table 9
Method: as §3

A2008 = test: MTT assay A2008; format: cell-based; conditions: Table 9; A2008
Method: as §1, §2

[2] = tested on: HT-3 retinoblastoma xenograft tumors; conditions: oral, multiple doses, weekly×4
Method: Human HT-3 retinoblastoma xenograft tumors were initially established by subcutaneously injection of 2-5×10^6 HT-3 cells in a volume of 100-200 μL medium. Mouse models of HT-3 xenografts were set up by subcutaneously inoculating 30-40 mg tumor tissue on the flank of SCID mice. Treatment with individual compounds was initiated 7-14 days after the transplanted tumors reached 100-200 mm^3 (designated day 0). […] The individual compounds were formulated in an organic solvent-free with HPPCD as drug carriers in 2% HPMC (hydroxypropyl methylcellulose) and 1% PG (propylene glycol) in saline (a thick aqueous suspension) for oral administration. The vehicle is the same thick aqueous suspension without drug. A. FL7s-3-treated xenograft tumor curve profile (left panel) and body weight profile (right panel) over the experimental period. B. FL7s-4-treated xenograft tumor curve profile (left panel) and body weight profile (right panel) over the experimental period. C. FL7s-7-treated xenograft tumor curve profile (left panel) and body weight profile (right panel) over the experimental period.
(§4) Human xenograft tumors used. In this invention disclose, human SW620 (colorectal), HT29 (colorectal) and HT-3 (retinoblastoma) cancer cell line-established xenograft tumors were used. Human tumor cell line-derived xenograft tumors are initially established by subcutaneously injecting 2-5×10^6 cultured cancer cells in a volume of 100-150 p L medium into the flank area of severe combined immunodeficiency (SCID) mice. The derived tumors are then passed a couple of generations in mice by transplanting 30-50 mg non-necrotic tumor mass via a trocar for experiments or maintenance. […] PDX tumors were originally established on severe Combined Immunodeficiency (SCID) mice from pancreatic and colorectal cancer patient tumor tissues obtained from metastatic sites of the disease in the clinic.
To these three novel compounds, we performed in vivo animal model studies to evaluate their antitumor activity and toxicity using the HT-3 retinoblastoma xenograft tumor models. In this experiment, we still took advantage of the newly developed formulation for oral administration of compounds.

HepG2 = format: cell-based, human
A549 [3] = format: cell-based, human
HeLa = format: cell-based, human
HCT116 = format: cell-based, human
CRC PDX27454 tumors = conditions: mouse, in vivo
Method: Colorectal cancer (CRC) patient-derived xenograft (PDX) models were used to evaluate their in vivo antitumor activity. […] Treatments were administered weekly for four weeks on days 0, 7, 14 and 21 and tumor volumes and individual body weights were monitored.
as §4
Specifically, PDX tumors were originally established on severe Combined Immunodeficiency (SCID) mice from pancreatic and colorectal cancer patient tumor tissues obtained from metastatic sites of the disease in the clinic. […] The vehicle is the same think aqueous suspension without drug. Experimental SCID mice were subcutaneously implanted with 30-40 mg individual PDX tumors (isolated from maintenance mice) at the flank area for PDX27454 of SCID mice. Treatment with vehicle or a drug of 7Q-series (2) was initiated 7-14 days after the transplanted tumors reached 100-200 mm^3 (designated day 0). The animal model of PDX tumors was orally treated weekly for 4 times (one cycle/course, as shown with black arrows) or only one time drug administration.

UOK151 = conditions: Table 10; UOK151
Method: as §1, §2

UOK262 = conditions: Table 10; UOK262
Method: as §1, §2

PDX14244 and PDX27454 = test: Pancreatic PDX14244 (left flank) and colorectal PDX27454 (right flank) in the same SCID mice; format: in vivo; conditions: oral weekly for 3 times
Method: Human xenograft tumors used.
The vehicle is the same aqueous suspension without FL7N-1. Experimental SCID mice were subcutaneously implanted with 30-40 mg individual PDX tumors (isolated from maintenance mice) at the flank area (left side for PDX14244, and right side for PDX27454) of SCID mice. […] The animal model of PDX tumors was orally treated weekly for 3 times as shown with black arrows. […] Thus, FL7N-1 may be a priority candidate to be developed for treatment of children rare disease retinoblastoma.
(§5) The vehicle is the same think aqueous suspension without drug. Experimental SCID mice were subcutaneously implanted with 30-40 mg individual PDX tumors (isolated from maintenance mice) at the flank area (left side for PDX14244, and right side for PDX27454) of SCID mice. […] The animal model of PDX tumors was orally treated weekly for 3 times as shown with black arrows.
as §5, with “for 4” for “for 3”, “times (one cycle/course,” for “times”, “black arrows).” for “black arrows.”
as §5, with “times in two doses due to drug limitation then (as” for “times as”, “black arrows).” for “black arrows.”

SMILES: CC[C@@]1(O)C(=O)OCc2c1cc1n(c2=O)Cc2c-1nc1cc3c(cc1c2C=Cc1ccccc1)OCO3 [FL7-5, 20 (S)-7-cinnamenyl-10,11-methylenedioxy-camptothecin]
- IC50/EC50 (HT-3): 5.89 nM
- IC50/EC50 (Y79): 2.51 nM
- IC50/EC50 (Wer 127): 5.13 nM

SMILES: CC[C@@]1(O)C(=O)OCc2c1cc1n(c2=O)Cc2c-1nc1cc3c(cc1c2-c1ccco1)OCO3 [W-b7]
- IC50/EC50 (A549 [1]): 0.39 nM
- IC50/EC50 (A2008): 0.19 nM

SMILES: CC[C@@]1(O)C(=O)OCc2c1cc1n(c2=O)Cc2c-1nc1cc3c(cc1c2-c1ccsc1)OCO3 [W-b4]
- IC50/EC50 (A549 [1]): 1.99 nM
- IC50/EC50 (A2008): 31.9 nM

SMILES: CC[C@@]1(O)C(=O)OCc2c1cc1n(c2=O)Cc2c-1nc1cc3c(cc1c2CCc1cccc(F)c1)OCO3 [FL7s-7]
- IC50/EC50 (HT-3): 2.22 nM
- IC50/EC50 (Y79): 0.29 nM
- IC50/EC50 (Wer 127): 4.76 nM
- overall antitumor activity versus toxicity ranking [2]: top two candidates

SMILES: CC[C@@]1(O)C(=O)OCc2c1cc1n(c2=O)Cc2c-1nc1cc3c(cc1c2-c1cnn(C)c1)OCO3 [W-b5]
- IC50/EC50 (A549 [1]): 2.29 nM
- IC50/EC50 (A2008): 17.5 nM

SMILES: CCC1(O)C(=O)OCc2c1cc1n(c2=O)Cc2c-1nc1cc3c(cc1c2C=CC=Cc1ccc(OC)cc1)OCO3 (stereo not shown) [FL7s-2]
- IC50/EC50 (HT-3): 113.2 nM
- IC50/EC50 (Y79): 41.48 nM
- IC50/EC50 (Wer 127): >500 nM

SMILES: CC[C@@]1(O)C(=O)OCc2c1cc1n(c2=O)Cc2c-1nc1cc3c(cc1c2/C=C/c1ccc(F)cc1)OCO3 [FL7s-3]
- IC50/EC50 (HT-3): 1.68 nM
- IC50/EC50 (Y79): 0.61 nM
- IC50/EC50 (Wer 127): 40.69 nM
- overall antitumor activity versus toxicity ranking [2]: top two candidates

SMILES: CC[C@@]1(O)C(=O)OCc2c1cc1n(c2=O)Cc2c-1nc1cc3c(cc1c2-c1cc(F)cc(F)c1)OCO3 [Compound 7c]
- IC50 (HepG2): 41.4 ± 5.9 nM
- IC50 (A549 [3]): 49.5 ± 10 nM
- IC50 (HeLa): 35.6 ± 5.8 nM
- IC50 (HCT116): 48 ± 4.4 nM
- antitumor efficacy (CRC PDX27454 tumors): high antitumor efficacy
- mouse body weights (CRC PDX27454 tumors; ip): stable mouse body weights

SMILES: CC[C@@]1(O)C(=O)OCc2c1cc1n(c2=O)Cc2c-1nc1cc3c(cc1c2-c1ccncc1)OCO3 [W-b1, 20 (S)-7-(pyridyl-4-)-FL118 (10,11-methylenedioxy-camptothecin)]
- IC50/EC50 (A549 [1]): 73.4 nM
- IC50/EC50 (A2008): 24.4 nM

SMILES: CC[C@@]1(O)C(=O)OCc2c1cc1n(c2=O)Cc2c-1nc1cc3c(cc1c2-c1cccc(OC(F)(F)F)c1)OCO3 [Compound 71]
- IC50 (HepG2): 16.8 ± 2.3 nM
- IC50 (A549 [3]): 26.4 ± 7.5 nM
- IC50 (HeLa): 12.8 ± 7.4 nM
- IC50 (HCT116): 14.6 ± 6.7 nM
- antitumor efficacy (CRC PDX27454 tumors): no more effective than FL118 in vivo

SMILES: CC[C@@]1(O)C(=O)OCc2c1cc1n(c2=O)Cc2c-1nc1cc3c(cc1c2CCc1ccc(F)cc1)OCO3 [FL7s-4]
- IC50/EC50 (HT-3): 4.7 nM
- IC50/EC50 (Y79): 0.62 nM
- IC50/EC50 (Wer 127): 49.46 nM

SMILES: CC[C@@]1(O)C(=O)OCc2c1cc1n(c2=O)Cc2c-1nc1cc3c(cc1c2/C=C/C=C/c1ccccc1)OCO3 [FL7s-1]
- IC50/EC50 (HT-3): 11.9 nM
- IC50/EC50 (Y79): 4.16 nM
- IC50/EC50 (Wer 127): >500 nM

SMILES: CC[C@@]1(O)C(=O)OCc2c1cc1n(c2=O)Cc2c-1nc1cc3c(cc1c2CCc1ccccc1F)OCO3 [FL7s-8]
- IC50/EC50 (HT-3): 4.88 nM
- IC50/EC50 (Y79): 1.56 nM
- IC50/EC50 (Wer 127): 28.99 nM

SMILES: CC[C@@]1(O)C(=O)OCc2c1cc1n(c2=O)Cc2c-1nc1cc3c(cc1c2CCc1ccccc1Cl)OCO3 [FL7-15, 20 (S)-7-(2-chloro-phenethyl)-10,11-methylenedioxy-camptothecin]
- IC50/EC50 (HT-3): 45.81 nM
- IC50/EC50 (Y79): 12.59 nM
- IC50/EC50 (Wer 127): >500 nM
- overall antitumor activity versus toxicity ranking [2]: not as good as FL7-5 and FL7-14

SMILES: CC[C@@]1(O)C(=O)OCc2c1cc1n(c2=O)Cc2c-1nc1cc3c(cc1c2CCc1cc(F)c(F)c(F)c1)OCO3 [FL7s-10]
- IC50/EC50 (HT-3): 3.44 nM
- IC50/EC50 (Y79): 1.15 nM
- IC50/EC50 (Wer 127): 12.26 nM

SMILES: CC[C@@]1(O)C(=O)OCc2c1cc1n(c2=O)Cc2c-1nc1cc3c(cc1c2CCc1ccccc1)OCO3 [FL7-14, 20 (S)-7-phenethyl-10,11-methylenedioxy-camptothecin]
- IC50/EC50 (HT-3): 36.9 nM
- IC50/EC50 (Y79): 8.39 nM
- IC50/EC50 (Wer 127): 4.1 nM

SMILES: CC[C@@]1(O)C(=O)OCc2c1cc1n(c2=O)Cc2c-1nc1cc3c(cc1c2CCCCc1ccc(OC)cc1)OCO3 [FL7s-6]
- IC50/EC50 (HT-3): 7.7 nM
- IC50/EC50 (Y79): 1.52 nM
- IC50/EC50 (Wer 127): 6.48 nM

SMILES: CC[C@@]1(O)C(=O)OCc2c1cc1n(c2=O)Cc2c-1nc1cc3c(cc1c2-c1ccc(F)c(F)c1)OCO3 [HX6]
- IC50/EC50 (UOK151): 4.6 nM
- IC50/EC50 (UOK262): 4.9 nM
- antitumor activity and toxicity, Hx-series (PDX14244 and PDX27454): much higher antitumor activity with favorable toxicity

SMILES: CC[C@@]1(O)C(=O)OCc2c1cc1n(c2=O)Cc2c-1nc1cc3c(cc1c2CCc1ccc(Br)cc1)OCO3 [FL7-17, 20 (S)-7-(4-bromo-phenethyl)-10,11-methylenedioxy-camptothecin]
- IC50/EC50 (HT-3): 6.48 nM
- IC50/EC50 (Y79): 1.57 nM
- IC50/EC50 (Wer 127): 2.48 nM
- overall antitumor activity versus toxicity ranking [2]: not as good as FL7-5 and FL7-14

SMILES: CC[C@@]1(O)C(=O)OCc2c1cc1n(c2=O)Cc2c-1nc1cc3c(cc1c2-c1ccc(CO)cc1)OCO3 [W-b9]
- IC50/EC50 (A549 [1]): 1.28 nM
- IC50/EC50 (A2008): 3.49 nM

SMILES: CC[C@@]1(O)C(=O)OCc2c1cc1n(c2=O)Cc2c-1nc1cc3c(cc1c2CCCCc1ccccc1)OCO3 [FL7s-5]
- IC50/EC50 (HT-3): 3.58 nM
- IC50/EC50 (Y79): 1.11 nM
- IC50/EC50 (Wer 127): 381.2 nM

SMILES: CC[C@@]1(O)C(=O)OCc2c1cc1n(c2=O)Cc2c-1nc1cc3c(cc1c2CCc1ccc(F)c(F)c1)OCO3 [FL7s-9]
- IC50/EC50 (HT-3): 3.42 nM
- IC50/EC50 (Y79): 1 nM
- IC50/EC50 (Wer 127): 1.86 nM
